Key:
Type in all cases: in vivo
[1] = test system: Setaria faberi (SETFA); test: Pre-Emergence Test (herbicidal, glasshouse pots); conditions: evaluated after 13 days, five-point scale
[2] = test system: Ipomoea hederacea (IPOHE); test: Pre-Emergence Test (herbicidal, glasshouse pots); conditions: evaluated after 13 days, five-point scale
[3] = test system: Echinochloa crus-galli (ECHCG); test: Pre-Emergence Test (herbicidal, glasshouse pots); conditions: evaluated after 13 days, five-point scale
[4] = test system: Amaranthus retoflexus (AMARE); test: Pre-Emergence Test (herbicidal, glasshouse pots); conditions: evaluated after 13 days, five-point scale
[5] = test system: Zea mays (ZEAMX); test: Pre-Emergence Test (herbicidal, glasshouse pots); conditions: evaluated after 13 days, five-point scale
[6] = test system: Amaranthus palmeri (AMAPA); test: Pre-Emergence Test (herbicidal, glasshouse pots); conditions: evaluated after 13 days, five-point scale
[7] = test system: Amaranthus palmeri (AMAPA); test: Post-Emergence Test (herbicidal, glasshouse pots); conditions: evaluated after 13 days
Procedure, shortened: (§1)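 Pots sown and sprayed with compound in acetone/water 50:50 with 0.5% Tween 20 at rates in g/ha, grown in glasshouse (24/16 °C, 14 h light, 65% humidity). Damage scored 13 days later on a five-point scale (5 = 81-100%, 1 = 0-20%).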

[8] = test system: Amaranthus retoflexus (AMARE); test: Post-Emergence Test (herbicidal, glasshouse pots); conditions: evaluated after 13 days
Procedure, shortened: as §1

[9] = test system: Echinochloa crus-galli (ECHCG); test: Post-Emergence Test (herbicidal, glasshouse pots); conditions: evaluated after 13 days
Procedure, shortened: as §1

[10] = test system: Ipomoea hederacea (IPOHE); test: Post-Emergence Test (herbicidal, glasshouse pots); conditions: evaluated after 13 days
Procedure, shortened: as §1

[11] = test system: Setaria faberi (SETFA); test: Post-Emergence Test (herbicidal, glasshouse pots); conditions: evaluated after 13 days
Procedure, shortened: as §1

[12] = test system: Zea mays (ZEAMX); test: Post-Emergence Test (herbicidal, glasshouse pots); conditions: evaluated after 13 days
Procedure, shortened: as §1

SMILES	percentage damage caused to the plant, SETFA ([1]; rate 250 g/ha)	percentage damage caused to the plant, IPHOE ([2]; rate 250 g/ha)	percentage damage caused to the plant, ECHCG ([3]; rate 250 g/ha)	percentage damage caused to the plant, AMARE ([4]; rate 250 g/ha)	percentage damage caused to the plant, ZEAMX ([5]; rate 250 g/ha)	percentage damage caused to the plant, AMAPA ([6]; rate 250 g/ha)	Post-Emergence Test AMAPA percentage damage (five-point scale) ([7]; rate 250 g/ha)	Post-Emergence Test AMARE percentage damage (five-point scale) ([8]; rate 250 g/ha)	Post-Emergence Test ECHCG percentage damage (five-point scale) ([9]; rate 250 g/ha)	Post-Emergence Test IPHOE percentage damage (five-point scale) ([10]; rate 250 g/ha)	Post-Emergence Test SETFA percentage damage (five-point scale) ([11]; rate 250 g/ha)	Post-Emergence Test ZEAMX percentage damage (five-point scale) ([12]; rate 250 g/ha)	further results
CCn1c(Oc2ccc(C)c(F)c2)cc(=O)c(C(=O)O)c1-c1ccc(C#N)c(Cl)c1 [Compound 73, 2-(3-chloro-4-cyano-phenyl)-1-ethyl-6-(3-fluoro-4-methyl-phenoxy)-4-oxo-pyridine-3-carboxylic acid]	5 (5=81-100%)	4 (4=61-80%)	4 (4=61-80%)	1 (1=0-20%)	2 (2=21-40%)	1 (1=0-20%)	1 (1=0-20%)	1 (1=0-20%)	4 (4=61-80%)	4 (4=61-80%)	3 (3=41-60%)	4 (4=61-80%)	
C/C=C(\C)COc1cc(=O)c(C(=O)O)c(-c2ccc(Cl)c(Cl)c2)n1CC [Compound 63, 2-(3,4-dichlorophenyl)-1-ethyl-6-[(E)-2-methylbut-2-enoxy]-4-oxo-pyridine-3-carboxylic acid]	0	2 (2=21-40%)	0	1 (1=0-20%)	0	0	1 (1=0-20%)	2 (2=21-40%)	1 (1=0-20%)	2 (2=21-40%)	0	1 (1=0-20%)	
CCn1c(Oc2ccc(F)c(F)c2)cc(=O)c(C(=O)O)c1-c1ccc(C#N)c(Cl)c1 [Compound 76]	5 (5=81-100%)	1 (1=0-20%)	4 (4=61-80%)	2 (2=21-40%)	5 (5=81-100%)	2 (2=21-40%)	3 (3=41-60%)	4 (4=61-80%)	3 (3=41-60%)	4 (4=61-80%)	4 (4=61-80%)	4 (4=61-80%)	
CCn1c(Oc2cc(Cl)n(C)n2)cc(=O)c(C(=O)O)c1-c1ccc(Cl)c(Cl)c1 [Compound 60, 6-(5-chloro-1-methyl-pyrazol-3-yl)oxy-2-(3,4-dichlorophenyl)-1-ethyl-4-oxo-pyridine-3-carboxylic acid]	3 (3=41-60%)	4 (4=61-80%)	1 (1=0-20%)	2 (2=21-40%)	0	0	1 (1=0-20%)	4 (4=61-80%)	1 (1=0-20%)	4 (4=61-80%)	1 (1=0-20%)	3 (3=41-60%)	
CCn1c(Oc2ccnc(Cl)c2)cc(=O)c(C(=O)O)c1-c1ccc(Cl)c(Cl)c1 [Compound 54, 6-[(2-chloro-4-pyridyl)oxy]-2-(3,4-dichlorophenyl)-1-ethyl-4-oxo-pyridine-3-carboxylic acid]	5 (5=81-100%)	4 (4=61-80%)	4 (4=61-80%)	3 (3=41-60%)	1 (1=0-20%)	1 (1=0-20%)	3 (3=41-60%)	4 (4=61-80%)	3 (3=41-60%)	4 (4=61-80%)	3 (3=41-60%)	4 (4=61-80%)	
CCn1c(Oc2ccc(F)cc2)cc(=O)c(C(=O)O)c1-c1ccc(Cl)c(Cl)c1 [Compound 4, 2-(3,4-dichlorophenyl)-1-ethyl-6-(4-fluorophenoxy)-4-oxo-pyridine-3-carboxylic acid]													percentage damage caused to the plant, SETFA ([1]; rate 1000 g/ha): 5 (5=81-100%); percentage damage caused to the plant, IPHOE ([2]; rate 1000 g/ha): 4 (4=61-80%); percentage damage caused to the plant, ECHCG ([3]; rate 1000 g/ha): 5 (5=81-100%); percentage damage caused to the plant, AMARE ([4]; rate 1000 g/ha): 3 (3=41-60%); percentage damage caused to the plant, ZEAMX ([5]; rate 1000 g/ha): 3 (3=41-60%); percentage damage caused to the plant, AMAPA ([6]; rate 1000 g/ha): 3 (3=41-60%); Post-Emergence Test AMAPA percentage damage (five-point scale) ([7]; rate 1000 g/ha): 4 (4=61-80%); Post-Emergence Test AMARE percentage damage (five-point scale) ([8]; rate 1000 g/ha): 4 (4=61-80%); Post-Emergence Test ECHCG percentage damage (five-point scale) ([9]; rate 1000 g/ha): 4 (4=61-80%); Post-Emergence Test IPHOE percentage damage (five-point scale) ([10]; rate 1000 g/ha): 3 (3=41-60%); Post-Emergence Test SETFA percentage damage (five-point scale) ([11]; rate 1000 g/ha): 4 (4=61-80%); Post-Emergence Test ZEAMX percentage damage (five-point scale) ([12]; rate 1000 g/ha): 3 (3=41-60%)
CCn1c(Oc2ccn(C3CC3)n2)cc(=O)c(C(=O)O)c1-c1ccc(Cl)c(Cl)c1 [Compound 58, 6-(1-cyclopropylpyrazol-3-yl)oxy-2-(3,4-dichlorophenyl)-1-ethyl-4-oxo-pyridine-3-carboxylic acid]	5 (5=81-100%)	5 (5=81-100%)	5 (5=81-100%)	4 (4=61-80%)	5 (5=81-100%)	3 (3=41-60%)	3 (3=41-60%)	4 (4=61-80%)	3 (3=41-60%)	4 (4=61-80%)	3 (3=41-60%)	4 (4=61-80%)	
CCn1c(Oc2ccc(S(C)(=O)=O)cc2)cc(=O)c(C(=O)O)c1-c1ccc(Cl)c(Cl)c1 [Compound 40, 2-(3,4-dichlorophenyl)-1-ethyl-6-(4-methylsulfonyl-phenoxy)-4-oxo-pyridine-3-carboxylic acid]	2 (2=21-40%)	3 (3=41-60%)	0	1 (1=0-20%)	0	1 (1=0-20%)	2 (2=21-40%)	2 (2=21-40%)	1 (1=0-20%)	4 (4=61-80%)	2 (2=21-40%)	1 (1=0-20%)	

From US20250324971A1, “HERBICIDAL DERIVATIVES” (SYNGENTA CROP PROTECTION AG, priority 2022, published 2025)
